Results as given in patent publication US20080280837A1, “Biologically Active Compounds with Anti-Angiogenic Properties” (priority 2004, published 2008).

Tests used:
[1] = system: PC-3 human prostate tumour xenograft; assay: Nude mouse model of human PC-3 prostate tumours; format: in vivo, nude mice; details: PC-3 xenograft
Procedure: Initial Maximum Tolerated Dose (MTD) studies were done in male nude mice to determine the appropriate intravenous dosing regimen for the PC-3 human prostate tumour model. A range of doses between 0 and 50 mg/Kg for 28 days (qdx28) were tested. Mice were randomized into groups with 5 animals per group including vehicle control. Animals were weighed twice weekly starting on day one and observed daily for adverse reactions or toxicity due to the agent. MTD studies determined the selection of 20 mg/kg and 35 mg/kg for intravenous dosing once per day for 28 days in the PC-3 human prostate tumour xenograft model.
Male nude mice (nu/nu) between 5 and 6 weeks of age weighing approximately 25 g were implanted subcutaneously (s.c) by trocar with fragments of PC-3 human tumour carcinomas harvested from s.c growing tumours in host mice. PC-3, is a metastatic human prostate adenocarcinoma cell line originating from a person. When tumours reached approximately 36 mm^3 in size animals were pair matched into treatment and control groups with 10 mice in each group. […]
At the end of the treatment period the mice were weighed and sacrificed. Each tumour was excised and weighed and a mean actual tumour weight (mg) per group was calculated along with the mean actual volume ([…]). […] Mean tumour regression was determined using the formula [1−(mean actual tumour weightFINAL/mean tumour weightDAY 1)×100%].

[2] = target: T1, SSTR-1 (Homo sapiens, UniProt P30872); assay: Radioligand binding screen against somatostatin subtype SSTR-1; details: concentration required to displace 50% of the competitive radioligand; read-out: IC50 SSTR1
T1 construct: expressed in transfected cells
T1 sequence (P30872 whole entry, species assumed): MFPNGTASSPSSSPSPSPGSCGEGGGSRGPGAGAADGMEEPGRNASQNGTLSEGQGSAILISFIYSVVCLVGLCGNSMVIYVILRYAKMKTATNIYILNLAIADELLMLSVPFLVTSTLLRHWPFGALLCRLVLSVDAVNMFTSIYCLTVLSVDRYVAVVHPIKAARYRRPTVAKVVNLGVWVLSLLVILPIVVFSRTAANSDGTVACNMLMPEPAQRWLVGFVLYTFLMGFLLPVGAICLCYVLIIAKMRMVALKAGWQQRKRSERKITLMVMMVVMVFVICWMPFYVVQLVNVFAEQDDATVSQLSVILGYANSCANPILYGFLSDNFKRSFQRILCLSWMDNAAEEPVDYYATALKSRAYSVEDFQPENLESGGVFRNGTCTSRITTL
Procedure: Receptor membrane preparations containing the desired cloned receptor (for example cloned human somatostatin receptor subtype 5, SSTR5) and radio-labeled ligand (for example 3-[^125I]iodotyrosyl^11 Somatostatin-14)) were diluted at the concentration required for testing and according to the specific parameters associated with the selected receptor-ligand combination, including receptor Bmax, ligand Kd and any other parameters necessary to optimize the experimental conditions. When tested for competition activity to the reference ligand, “compound 1” was mixed with membrane suspension and the radiolabeled reference ligand (with or without an excess of cold ligand to the receptor for determination of non-specific binding) and incubated at the temperature required by internal standard operating procedures. Following incubation, the binding reaction was stopped by the addition of ice-cold washing buffer and filtered on appropriate filters, which are then counted. Data analysis and curve-fitting was performed with XLfit (IDBS).
10 mM solutions of test compounds in 100% DMSO were prepared. ˜160 μl was used for each dilution (20 μl/well in triplicate).
A 1.25 mM assay stock was prepared by making a 1:8 dilution of the 10 mM solution. (To 30 μL of the 10 mM solution was added 210 μL milli-Q H2O. A 1:5 dilution series in milli-Q H2O was then prepared.
In primary screening experiments compounds were tested in duplicate for a particular concentration.

[3] = system: 3T3 cell line; assay: Cell proliferation assay (CellTiter 96 AQueous One) as indicator of toxicity, 3T3; format: cell-based; details: 3T3, 100 μM
Procedure: (§1) A simple cell proliferation assay was used to determine the in vitro cytotoxicity of “compound 1.” Selected cell lines were cultured according to their specific requirements. The optimal cell density required for each cell line was determined. All compounds were tested at a single concentration in triplicate. Cell viability was determined using the CellTiter 96® AQueous One reagent from Promega Corporation.
(§2) Assays are performed by adding the test compound to the cells in culture and incubating the cells for a fixed period. The number of viable cells remaining after the incubation period is determined by adding a small amount of the CellTiter 96® AQueous One Solution Reagent directly to culture wells, incubating for 1-4 hours and then recording absorbance at 490 nm with a 96 well plate reader.
(§3) Controls in the assay include untreated cells, wells without cells and cells treated with know cytotoxic agents. Data is presented as % inhibition of cell proliferation.

[4] = in vitro; details: human, Caco-2
Procedure: The Caco-2 assay was performed according to the procedure described in the following cited article [Caco-2 Monolayers in Experimental and Theoretical Predictions of Drug Transport, Artursson P, Palm K, Luthman K., Adv. Drug Deliv. Rev., 2001, 46, 27-43].

[5] = system: Jurkat cell line; assay: Cell proliferation assay (CellTiter 96 AQueous One) as indicator of toxicity, Jurkat; format: cell-based; details: 100 μM
Procedure: as §1, §2, §3

[6] = system: Human Umbilical Vein Endothelial Cells (HUVEC); assay: Endothelial cell proliferation assay (MTS); format: cell-based; details: 48 hrs
Procedure: Human Umbilical Vein Endothelial Cells (HUVEC from Clonetics) were plated in 96 well plates at 1000 cell per well in EGM-2 medium (Clonetics). Cells were grown overnight at 37° C. in 5% CO2. Fresh EGM-2 medium containing compound at the desired concentration was added to the wells and the cells allowed to grow for a further 48 hrs. A MTS (Promega) colorimetric assay was performed after 48 hrs to determine cell growth according to the manufacturers instructions. Results are presented in terms of percentage growth.

[7] = system: MCF—7 cell line; assay: Cell proliferation assay (CellTiter 96 AQueous One) as indicator of toxicity, MCF-7; format: cell-based; details: MCF—7, 100 μM
Procedure: as §1, §2, §3

[8] = Solubility of salts of compound 1; format: physicochemical; details: Water, overnight; listed as Free Base (Compound 1)

IC50 [2]: > 12.5 µM
Papp [4]: 1.04 ×10⁻⁶ cm/s
Solubility in Water [8]: >200 µg/mL
SMILES: COC[C@H]1O[C@H](OCCc2ccccc2)[C@H](NC(=O)CCCN)[C@@H](OCc2ccc3ccccc3c2)[C@@H]1O [Compound 1]
Tumour growth inhibition (TGI) ([1]; 20 mg/kg i.v. daily): 34%
Tumour growth inhibition (TGI) ([1]; 35 mg/kg i.v. daily): 34%
Inhibition of cell proliferation [3]: no inhibitory effect
Inhibition of cell proliferation [5]: no inhibitory effect
Percent cell growth at 125 µM ([6]; 125 uM): 69%
Percent cell growth at 250 µM ([6]; 250 uM): 17%
Inhibition of cell proliferation [7]: no inhibitory effect
